Laboratory results: publication PMC12564498, “Benzo[d]imidazole–Naphthalen-Arylmethanone Regioisomers as CB1 Ligands: Evaluation of Agonism via an Indirect Cytotoxicity-Based Approach” (International Journal of Molecular Sciences, 2025)
Where “and” joins values, the source holds several entries; their conditions need not be identical. Equal entries are not always repeated. Where two headings read alike, the source gives them in different places.

Experiments:
[1] = target: T1, human recombinant cannabinoid CB2 receptor (Homo sapiens, UniProt P34972); assay: CB2 radioligand displacement binding assay ([3H]CP-55940); settings: for Ki: Cheng–Prusoff from IC50, [3H]CP-55940 0.5 nM; for Ki / IC50: mean ± SEM n = 3; for IC50: [3H]CP-55940 0.5 nM, hCB2 HEK293-EBNA membranes; for inhibition at 10 µM: displacement of [3H]CP-55940 at 10 μM compound, read-out: CB2 Max Tested µM (% Displacement)
T1 construct: purchased Perkin Elmer Inc., Singapore Pte; Ltd. RBXCB2M400UA; host or cells: HEK293-EBNA cell membranes (overexpressing)

HEK293 cells = assay: cells; settings: for cytotoxicity at 0.1 µM: read-out: % Toxicity HEK293T, 0.1 μM, 72 h, MTT, n = 3; for cytotoxicity in HEK293: Figure 4, MTT; for IC50: read-out: IC50 toxicity HEK293T
Description: (§1) HEK293, U87MG, and HL-60 cell lines were seeded in a flat-bottom 96-well plate at a density of 10,000 cells per well. […] All compounds were incubated at 0.1 μM in 200 μL of culture medium supplemented with 10% FBS, in a flat-bottom 96-well plate at a density of 10,000 cells per well, at 37 °C for 72 h. Next, 20 μL of a 5 mg/mL MTT solution was added, and the cells were incubated at 37 °C for 4 h. Then, they were solubilized with 10% sodium dodecyl sulfate (SDS) in 0.1 mM HCl and incubated overnight at 37 °C. Formazan absorbance of each well was measured using the EPOCH microplate reader (Biotek, Winooski, VT, USA) at a wavelength of 570 nm. […]
(§2) promyelocytic leukemia cells (HL-60) were maintained at 5% CO2 and 37 °C in DMEM, EMEM and RPMI medium, respectively containing 10% Fetal Bovine Serum and 100 U/mL penicillin and 100 […]
(§3) Cell viability: ([MTT - (3-(4,5-dimethylthiazol-2-yl)-2,5-diphenyltetrazolium bromide) - formazan] HEK293, U87MG, and HL-60 cells were first quantified to determine the exact number to be used in […]
(§4) with the Beer-Lambert(1).
(§5) HEK293, U87MG and HL-60 cell lines were seed in a flat-bottom 96-wells plate at a density of 10,000 […]
(§6) concentrations (0.001 μM to 10 μM) in 200 μL of respective culture medium supplemented with 10% fetal bovine serum (FBS), at 37 °C for 72 hours. Subsequently, 20 μL of 5 mg/mL MTT solution was added to each well, and cells were incubated at 37 °C for 4 h. The resulting formazan crystals were then solubilized with 10% sodium dodecyl sulfate (SDS) in 0.1 mM HCl, followed by overnight incubation at 37 °C. Untreated cells were used as the control, 0.1% of dimethyl sulfoxide (DMSO) as the vehicle control, and 0.2 % of Triton X-100 as a positive control for cell death. IC 50 toxicity values […]
(§7) same conditions described in the previous paragraph. […]
(§8) determined IC50. The stimulation with both CB ligands was performed simultaneously.
(§9) All compounds were incubated at 0.1 μM in 200 μL of culture medium supplemented with 10% FBS, in a flat-bottom 96-well plate at a density of 10,000 cells per well, at 37°C for 72 hours. Next, 20 μL of a 5 mg/mL MTT solution was added, and the cells were incubated at 37°C for 4 hours. Then, they were solubilized with 10% sodium dodecyl sulfate (SDS) in 0.1 mM HCl and incubated overnight at 37°C. Formazan absorbance of each well was measured using the EPOCH microplate reader (Biotek, USA) at a wavelength of 570 nm.
(§10) [1]Mosorov, V., The Lambert-Beer law in time domain form and its application.

U87MG cells = assay: cells; settings: 72 h; for cytotoxicity at 0.1 µM: read-out: % Toxicity U87MG, 0.1 μM, 72 h, MTT, n = 3; for cytotoxicity in U87MG: Figure 4, MTT, 0.001 μM to 10 μM
Description: as §1, §2, §3, §4, §5, §6, §7, §8, §9, §10

HL-60 cells = assay: cells; settings: for cytotoxicity at 0.1 µM: read-out: % Toxicity HL-60; for cytotoxicity in HL-60: Figure 4, MTT
Description: as §1, §2, §3, §4, §5, §6, §7, §8, §9, §10

[2] = target: T2, human cannabinoid CB1 receptor (Homo sapiens, UniProt P21554); assay: biochemical; format: binding; settings: for Ki: Cheng–Prusoff from IC50, [3H]CP-55940 0.5 nM, read-out: CB1 Ki; for Ki / IC50: mean ± SEM n = 3; for IC50: [3H]CP-55940 0.5 nM, hCB1 HEK293-EBNA membranes, read-out: CB1 IC50; for inhibition at 10 µM: displacement of [3H]CP-55940 at 10 μM compound, read-out: CB1 Max Tested µM (% Displacement)
T2 construct: purchased Perkin Elmer Inc., Singapore Pte; Ltd. RBHCB1M400UA; host or cells: HEK293-EBNA cell membranes (overexpressing)

[3] = read-out: IC50 toxicity U87MG, MTT

T1 sequence (P34972 whole entry): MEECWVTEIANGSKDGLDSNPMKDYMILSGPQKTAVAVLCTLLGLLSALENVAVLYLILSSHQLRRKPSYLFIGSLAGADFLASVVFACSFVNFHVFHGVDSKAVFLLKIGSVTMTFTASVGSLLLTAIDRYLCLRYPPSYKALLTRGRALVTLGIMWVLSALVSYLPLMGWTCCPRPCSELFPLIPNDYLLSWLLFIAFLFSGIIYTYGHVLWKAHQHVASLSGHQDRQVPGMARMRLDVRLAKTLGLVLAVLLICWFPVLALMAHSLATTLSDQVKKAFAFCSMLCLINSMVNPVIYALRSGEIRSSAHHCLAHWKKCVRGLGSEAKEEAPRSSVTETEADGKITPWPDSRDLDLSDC
T2 sequence (P21554 whole entry): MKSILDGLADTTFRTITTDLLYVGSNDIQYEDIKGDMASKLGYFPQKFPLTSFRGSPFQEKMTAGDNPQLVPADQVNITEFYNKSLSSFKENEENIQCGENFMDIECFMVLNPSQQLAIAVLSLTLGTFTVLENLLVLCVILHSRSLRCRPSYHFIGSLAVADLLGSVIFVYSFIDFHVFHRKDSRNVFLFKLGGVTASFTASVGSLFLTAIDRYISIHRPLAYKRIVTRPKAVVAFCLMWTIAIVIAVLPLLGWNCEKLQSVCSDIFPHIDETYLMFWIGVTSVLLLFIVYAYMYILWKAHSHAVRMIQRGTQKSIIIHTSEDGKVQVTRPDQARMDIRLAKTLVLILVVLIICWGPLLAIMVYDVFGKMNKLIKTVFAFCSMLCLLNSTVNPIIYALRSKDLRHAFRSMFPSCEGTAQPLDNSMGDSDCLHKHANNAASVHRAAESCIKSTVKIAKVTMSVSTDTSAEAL

Structure (SMILES)	Ki [1]	IC50 [1]	inhibition at 10 µM [1]	cytotoxicity at 0.1 µM (HEK293 cells; Homo sapiens, HEK293, 72 h)	cytotoxicity at 0.1 µM (U87MG cells; Homo sapiens, U-87 MG)	cytotoxicity at 0.1 µM (HL-60 cells; Homo sapiens, HL-60, 72 h)	Ki [2]	IC50 [2]	inhibition at 10 µM [2]	cytotoxicity in HEK293 (HEK293 cells; 0.001 μM to 10 μM, 72 h)	cytotoxicity in U87MG (U87MG cells)	IC50 (U87MG cells; [3])	cytotoxicity in HL-60 (HL-60 cells; 0.001 μM to 10 μM, 72 h)	other results
Cc1ccc(-c2nc3cc(F)ccc3n2C(=O)c2cccc3ccccc23)o1 [Compound 5e, (5-fluoro-2-(5-methylfuran-2-yl)-1H-benzo[d]imidazol-1-yl)(naphthalen-1-yl)methanone]	> 10 µM	> 10 µM	38.5%	55 ± 23%	39 ± 18%	50 ± 19%	1.82 ± 1.64 µM	7.4 ± 3.28 µM	> 55%	–	–	–	–	–
COc1ccc(C(=O)c2c(C)n(CCN3CCOCC3)c3cc(I)ccc23)cc1 [AM630, reference compound]	–	–	–	–	–	–	–	–	–	non-toxic	non-toxic	> 10 µM	non-toxic	IC50 (HEK293 cells; MTT, 72 h, 0.001 μM to 10 μM): > 10 µM; IC50 (HL-60 cells; read-out: IC50 toxicity HL-60, MTT, 72 h, 0.001 μM to 10 μM): > 10 µM
COc1cccc(-c2nc3cc(F)ccc3n2C(=O)c2cccc3ccccc23)c1 [Compound 5b, (5-fluoro-2-(3-methoxyphenyl)-1H-benzo[d]imidazol-1-yl)(naphthalen-1-yl)methanone]	> 10 µM	> 10 µM	45%	75 ± 17%	25 ± 14%	45 ± 17%	~1.53 µM and 1.53 µM	6.23 ± 3.8 µM	> 55%	–	–	–	–	–
Cc1c(C(=O)c2cccc3ccccc23)c2cccc3c2n1C(CN1CCOCC1)CO3 (centres unmarked) [WIN-55212-2, reference compound]	–	–	–	–	~30%	–	–	–	–	harmlessness	exhibits cytotoxicity	0.25 µM	exhibits cytotoxicity	displacement of specific radioligand binding (nonspecific binding definition), CB2 ([1]; 10 μM unlabeled WIN-55212-2, cannabinoid receptors): at least 84%; IC50 (HEK293 cells; Homo sapiens, HEK293, 72 h): > 10 µM; IC50 (U87MG cells; Homo sapiens, U-87 MG, read-out: IC50 toxicity U87MG, MTT, 72 h): 0.2 µM; IC50 (HL-60 cells; Homo sapiens, HL-60, 72 h, read-out: IC50 toxicity HL-60): 1.39 µM; IC50 (HL-60 cells; Homo sapiens, HL-60, read-out: IC50 HL-60 cells as printed in the figure picture): 1.38 µM
COc1cccc(-c2nc3ccc(Cl)cc3n2C(=O)c2cccc3ccccc23)c1 [4b′]	~4.46 µM and 4.46 µM	6.76 ± 3.09 µM	58%	50 ± 11%	39 ± 20%	52%	> 10 µM	> 10 µM	43%	–	–	–	–	% Toxicity HL-60 (HL-60 cells; 0.1 μM, 72 h, MTT, n = 3): 52 ± 13%
